# Experimental data taken from ChEMBL document CHEMBL2440026, “Hit-to-lead optimization of 2-(1H-pyrazol-1-yl)-thiazole derivatives as a novel class of EP1 receptor antagonists” (Bioorg Med Chem Lett, 2013).
# Assays:
# [1] = target: T1, Prostaglandin E2 receptor EP1 subtype (Homo sapiens, UniProt P34995); test: Antagonist activity at human EP1 receptor by intracellular Ca2+ release assay; assay type: functional, cell-based
# T1 sequence (P34995 whole entry): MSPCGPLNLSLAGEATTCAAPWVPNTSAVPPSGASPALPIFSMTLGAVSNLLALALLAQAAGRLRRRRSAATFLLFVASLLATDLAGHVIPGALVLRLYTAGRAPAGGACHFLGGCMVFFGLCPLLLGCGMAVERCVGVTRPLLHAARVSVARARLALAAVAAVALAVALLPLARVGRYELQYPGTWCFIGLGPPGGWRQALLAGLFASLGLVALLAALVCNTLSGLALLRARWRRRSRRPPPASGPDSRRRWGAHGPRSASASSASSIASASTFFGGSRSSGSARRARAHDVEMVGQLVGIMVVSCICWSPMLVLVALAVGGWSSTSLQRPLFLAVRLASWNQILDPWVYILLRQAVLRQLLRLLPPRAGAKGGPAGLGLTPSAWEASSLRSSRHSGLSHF
# [2] = target: T2, Prostaglandin E2 receptor EP2 subtype (Homo sapiens, UniProt P43116); test: Binding affinity to human EP2 receptor
# T2 sequence (P43116 whole entry): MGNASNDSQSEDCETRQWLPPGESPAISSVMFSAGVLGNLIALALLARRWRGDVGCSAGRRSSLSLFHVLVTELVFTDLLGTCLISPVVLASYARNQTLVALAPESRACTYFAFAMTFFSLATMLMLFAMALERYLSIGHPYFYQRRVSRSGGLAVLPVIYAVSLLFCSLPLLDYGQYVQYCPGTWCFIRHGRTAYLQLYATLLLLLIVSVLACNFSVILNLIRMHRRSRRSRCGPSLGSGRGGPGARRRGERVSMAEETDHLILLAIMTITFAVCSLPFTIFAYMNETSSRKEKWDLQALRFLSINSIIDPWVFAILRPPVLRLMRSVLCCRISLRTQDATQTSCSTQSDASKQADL
# [3] = target: Cytochrome P450 3A4 (Homo sapiens, UniProt P08684); test: Inhibition of CYP3A4 (unknown origin); assay type: ADME
# Chain of Cytochrome P450 3A4 (P08684 whole entry): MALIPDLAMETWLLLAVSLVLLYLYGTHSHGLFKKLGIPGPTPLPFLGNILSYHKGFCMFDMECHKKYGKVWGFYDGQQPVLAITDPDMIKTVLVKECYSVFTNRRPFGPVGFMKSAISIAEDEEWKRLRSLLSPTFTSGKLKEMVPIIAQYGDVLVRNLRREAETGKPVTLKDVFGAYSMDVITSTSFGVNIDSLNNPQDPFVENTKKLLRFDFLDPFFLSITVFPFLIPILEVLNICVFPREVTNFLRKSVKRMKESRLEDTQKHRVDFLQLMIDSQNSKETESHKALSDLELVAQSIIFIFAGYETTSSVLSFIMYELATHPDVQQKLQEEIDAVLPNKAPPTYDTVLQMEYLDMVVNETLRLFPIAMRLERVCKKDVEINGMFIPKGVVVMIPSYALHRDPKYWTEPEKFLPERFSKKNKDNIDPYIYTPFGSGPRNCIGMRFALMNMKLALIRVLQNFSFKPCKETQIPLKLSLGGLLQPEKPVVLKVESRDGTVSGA
# [4] = target: T3, Prostaglandin E2 receptor EP3 subtype (Homo sapiens, UniProt P43115); test: Binding affinity to human EP3 receptor
# T3 sequence (P43115 whole entry): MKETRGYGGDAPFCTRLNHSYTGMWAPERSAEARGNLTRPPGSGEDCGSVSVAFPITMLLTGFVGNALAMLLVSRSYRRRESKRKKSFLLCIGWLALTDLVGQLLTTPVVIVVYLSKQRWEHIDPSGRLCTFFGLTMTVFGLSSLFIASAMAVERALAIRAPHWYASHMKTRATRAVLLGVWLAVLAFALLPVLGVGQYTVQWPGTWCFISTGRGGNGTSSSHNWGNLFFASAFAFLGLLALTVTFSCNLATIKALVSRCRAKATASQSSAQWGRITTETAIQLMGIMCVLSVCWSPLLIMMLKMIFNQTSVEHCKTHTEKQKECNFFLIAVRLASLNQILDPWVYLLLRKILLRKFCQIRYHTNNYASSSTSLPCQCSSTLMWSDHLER
# [5] = target: Cytochrome P450 2C19 (Homo sapiens, UniProt P33261); test: Inhibition of CYP2C19 (unknown origin); assay type: ADME
# Chain of Cytochrome P450 2C19 (P33261 whole entry): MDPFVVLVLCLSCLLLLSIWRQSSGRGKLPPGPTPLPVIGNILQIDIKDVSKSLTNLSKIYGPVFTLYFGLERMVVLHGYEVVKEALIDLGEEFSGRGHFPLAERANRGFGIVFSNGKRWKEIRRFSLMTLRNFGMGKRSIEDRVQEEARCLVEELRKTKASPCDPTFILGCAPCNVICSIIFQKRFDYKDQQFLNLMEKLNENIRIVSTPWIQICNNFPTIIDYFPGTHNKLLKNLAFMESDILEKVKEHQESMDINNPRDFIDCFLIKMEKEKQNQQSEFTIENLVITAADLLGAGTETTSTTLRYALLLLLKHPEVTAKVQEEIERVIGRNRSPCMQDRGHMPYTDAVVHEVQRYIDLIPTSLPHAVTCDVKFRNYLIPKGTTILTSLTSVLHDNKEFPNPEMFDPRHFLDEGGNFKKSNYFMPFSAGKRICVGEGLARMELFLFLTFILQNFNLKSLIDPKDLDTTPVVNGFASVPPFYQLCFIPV
# [6] = Intrinsic clearance in human […] by LC/MS/MS analysis; assay type: ADME, cell-free
# [7] = Apparent permeability from apical to basolateral side in MDCK cells; assay type: ADME, cell-based, Canis lupus familiaris; settings: dog
# [8] = target: T1, Prostaglandin E2 receptor EP1 subtype; test: Antagonist activity at human EP1 receptor by reporter gene assay
# [9] = tested on: Salmonella typhimurium; test: Genotoxicity in Salmonella typhimurium TA100; assay type: toxicity, organism-based; settings: salmonella enterica subsp. enterica serovar typhimurium
# [10] = target: Cytochrome P450 2C9 (Homo sapiens, UniProt P11712); test: Inhibition of CYP2C9 (unknown origin); assay type: ADME
# Chain of Cytochrome P450 2C9 (P11712 whole entry): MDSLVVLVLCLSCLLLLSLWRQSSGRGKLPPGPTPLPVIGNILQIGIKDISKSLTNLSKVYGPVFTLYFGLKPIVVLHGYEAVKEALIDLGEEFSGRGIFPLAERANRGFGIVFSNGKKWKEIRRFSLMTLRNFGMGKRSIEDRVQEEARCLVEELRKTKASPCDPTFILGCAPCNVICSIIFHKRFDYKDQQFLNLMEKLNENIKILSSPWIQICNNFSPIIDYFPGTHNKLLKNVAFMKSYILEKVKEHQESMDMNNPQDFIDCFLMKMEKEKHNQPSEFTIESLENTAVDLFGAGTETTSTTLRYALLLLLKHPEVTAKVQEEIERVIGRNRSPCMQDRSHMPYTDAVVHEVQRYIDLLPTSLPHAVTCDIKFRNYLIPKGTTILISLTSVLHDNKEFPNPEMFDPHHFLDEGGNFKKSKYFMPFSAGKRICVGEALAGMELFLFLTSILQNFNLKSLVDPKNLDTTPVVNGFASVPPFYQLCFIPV
# [11] = target: T1, Prostaglandin E2 receptor EP1 subtype; test: Binding affinity to human EP1 receptor
# [12] = Intrinsic clearance in rat […] by LC/MS/MS analysis; assay type: ADME, cell-free
# [13] = tested on: Salmonella typhimurium; test: Genotoxicity in Salmonella typhimurium TA98; assay type: toxicity, organism-based; settings: salmonella enterica subsp. enterica serovar typhimurium
# [14] = Oral bioavailability in Sprague-Dawley rat at 10 mg/kg; assay type: ADME, organism-based; settings: in vivo
# [15] = target: T4, Cytochrome P450 1A2 (Homo sapiens, UniProt P05177); test: Inhibition of CYP1A2 (unknown origin); assay type: ADME
# T4 sequence (P05177 whole entry): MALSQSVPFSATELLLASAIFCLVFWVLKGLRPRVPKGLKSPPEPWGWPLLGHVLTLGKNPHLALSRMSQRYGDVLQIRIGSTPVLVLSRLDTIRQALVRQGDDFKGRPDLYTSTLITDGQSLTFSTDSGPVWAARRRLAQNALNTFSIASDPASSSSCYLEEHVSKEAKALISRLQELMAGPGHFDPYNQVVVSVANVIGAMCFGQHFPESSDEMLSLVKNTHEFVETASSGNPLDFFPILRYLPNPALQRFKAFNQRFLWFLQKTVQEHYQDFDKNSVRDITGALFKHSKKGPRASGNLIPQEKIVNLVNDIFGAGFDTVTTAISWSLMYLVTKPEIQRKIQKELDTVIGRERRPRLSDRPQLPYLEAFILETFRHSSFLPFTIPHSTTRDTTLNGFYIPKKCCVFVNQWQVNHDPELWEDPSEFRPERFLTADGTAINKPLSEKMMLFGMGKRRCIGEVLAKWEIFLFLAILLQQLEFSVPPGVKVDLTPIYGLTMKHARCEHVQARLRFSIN
# [16] = target: Cytochrome P450 2D6 (Homo sapiens, UniProt P10635); test: Inhibition of CYP2D6 (unknown origin); assay type: ADME
# Chain of Cytochrome P450 2D6 (P10635 whole entry): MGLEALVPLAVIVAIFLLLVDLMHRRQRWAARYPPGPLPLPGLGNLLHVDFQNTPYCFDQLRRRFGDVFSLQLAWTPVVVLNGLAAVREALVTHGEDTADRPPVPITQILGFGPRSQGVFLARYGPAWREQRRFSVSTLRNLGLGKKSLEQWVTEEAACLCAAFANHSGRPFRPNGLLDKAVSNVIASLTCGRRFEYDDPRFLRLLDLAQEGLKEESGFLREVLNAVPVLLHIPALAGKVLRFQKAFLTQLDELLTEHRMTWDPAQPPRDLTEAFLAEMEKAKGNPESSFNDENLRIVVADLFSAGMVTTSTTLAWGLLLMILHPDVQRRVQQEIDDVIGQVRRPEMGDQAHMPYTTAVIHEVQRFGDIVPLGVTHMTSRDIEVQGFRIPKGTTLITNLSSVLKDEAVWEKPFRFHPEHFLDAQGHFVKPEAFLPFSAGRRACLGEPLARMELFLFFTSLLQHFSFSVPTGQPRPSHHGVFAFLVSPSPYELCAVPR
# [17] = target: T5, Prostaglandin E2 receptor EP4 subtype (Homo sapiens, UniProt P35408); test: Binding affinity to human EP4 receptor
# T5 sequence (P35408 whole entry): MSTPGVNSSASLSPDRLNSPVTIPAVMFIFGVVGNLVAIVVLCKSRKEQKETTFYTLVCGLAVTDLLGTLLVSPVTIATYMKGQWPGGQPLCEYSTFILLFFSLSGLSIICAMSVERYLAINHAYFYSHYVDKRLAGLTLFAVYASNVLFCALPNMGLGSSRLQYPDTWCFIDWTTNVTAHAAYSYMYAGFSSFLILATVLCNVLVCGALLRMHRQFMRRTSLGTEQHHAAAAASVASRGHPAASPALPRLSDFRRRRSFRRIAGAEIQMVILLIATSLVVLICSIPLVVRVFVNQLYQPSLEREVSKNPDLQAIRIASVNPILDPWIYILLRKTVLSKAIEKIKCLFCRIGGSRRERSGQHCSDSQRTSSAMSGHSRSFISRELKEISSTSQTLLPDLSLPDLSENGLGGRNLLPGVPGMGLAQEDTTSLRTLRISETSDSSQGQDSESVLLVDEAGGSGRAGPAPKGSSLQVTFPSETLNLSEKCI
# [18] = species: Homo sapiens; test: Selectivity ratio of IC50 for EP2 receptor (unknown origin) to IC50 for human EP1 receptor
# [19] = target: T3, Prostaglandin E2 receptor EP3 subtype; test: Antagonist activity at EP3 receptor (unknown origin)
# [20] = target: T2, Prostaglandin E2 receptor EP2 subtype; test: Antagonist activity at EP2 receptor (unknown origin)
# [21] = target: T5, Prostaglandin E2 receptor EP4 subtype; test: Antagonist activity at EP4 receptor (unknown origin)
# [22] = species: Homo sapiens; test: Selectivity ratio of IC50 for EP3 receptor (unknown origin) to IC50 for human EP1 receptor
# [23] = species: Homo sapiens; test: Selectivity ratio of IC50 for EP4 receptor (unknown origin) to IC50 for human EP1 receptor
# [24] = target: T6, Prostaglandin E2 receptor EP1 subtype (Homo sapiens) (UniProt P34995); test: Antagonist activity at human EP1 receptor at 1.1 uM by reporter gene assay
# T6 sequence (whole entry): T1 sequence (P34995 whole entry)
compound,measurement,setting,value
Cc1c(-c2ccccc2)nn(-c2nc(C(=O)O)cs2)c1-c1ccccc1,IC50,[1],0.5 µM
same,Ki,[2],> 8 µM
same,IC50,[3],> 10 µM
same,Ki,[4],> 5 µM
same,IC50,[5],4.71 µM
same,CLint scaled,[6],35 mL/min/kg
same,Papp A→B,[7],51.6 ×10⁻⁶ cm/s
same,IC50,[8],0.05 µM
same,Activity,[9],Non-toxic
same,IC50,[10],> 10 µM
same,Ki,[11],0.29 µM
same,CLint scaled,[12],15 mL/min/kg
same,Activity,[13],Non-toxic
same,bioavailability,[14],32%
same,IC50,[15],7.93 µM
same,IC50,[16],> 10 µM
same,Ki,[17],> 2.7 µM
COc1ccc(-c2cc(C(F)(F)F)nn2-c2nc(C(=O)O)cs2)cc1,IC50,[1],5.8 µM
same,Ki,[2],> 8 µM
same,Ratio IC50,[18],3
same,IC50,[3],> 10 µM
same,Ki,[4],> 5 µM
same,IC50,[5],7.14 µM
same,IC50,[19],> 5 µM
same,CLint scaled,[6],187 mL/min/kg
same,IC50,[20],> 8 µM
same,IC50,[21],> 2.7 µM
same,Ratio IC50,[22],3
same,IC50,[8],1 µM
same,Activity,[9],Non-toxic
same,IC50,[10],> 10 µM
same,Ki,[11],8.7 µM
same,Ratio IC50,[23],3
same,CLint scaled,[12],195 mL/min/kg
same,Activity,[13],Non-toxic
same,IC50,[15],> 10 µM
same,IC50,[16],> 10 µM
same,Ki,[17],> 2.7 µM
O=C(O)c1csc(-n2nc(-c3ccccc3)cc2C(F)(F)F)n1,IC50,[3],> 10 µM
same,IC50,[5],> 10 µM
same,CLint scaled,[6],28 mL/min/kg
same,IC50,[8],0.32 µM
same,IC50,[10],> 10 µM
same,IC50,[15],> 10 µM
same,IC50,[16],> 10 µM
Cc1ccc(-c2cc(C(F)(F)F)n(-c3nc(C(=O)O)cs3)n2)cc1,IC50,[8],3 µM
Cc1cc(-c2ccccc2)nn1-c1nc(C(=O)O)cs1,inhibition,[24],14%
O=C(O)c1csc(-n2nc(-c3ccccc3)cc2-c2ccccc2)n1,inhibition,[24],31%
Cc1c(-c2ccccc2)nc(-c2nc(C(=O)O)cs2)n1-c1ccccc1,inhibition,[24],7%
O=C(O)c1csc(-n2nc(-c3cccc(O)c3)cc2C(F)(F)F)n1,IC50,[8],0.58 µM
Cc1c(-c2ccccc2)nn(-c2nc(C(=O)O)cs2)c1C(F)(F)F,IC50,[8],0.084 µM
Cn1c(-c2ccccc2)nc(-c2nc(C(=O)O)cs2)c1-c1ccccc1,IC50,[8],0.5 µM
O=C(O)c1csc(-n2nc(-c3ccccc3O)cc2C(F)(F)F)n1,IC50,[1],0.8 µM
same,Ki,[2],> 8 µM
same,IC50,[3],> 10 µM
same,Ki,[4],> 5 µM
same,IC50,[5],> 10 µM
same,CLint scaled,[6],500 mL/min/kg
same,Papp A→B,[7],22.8 ×10⁻⁶ cm/s
same,IC50,[8],0.18 µM
same,Activity,[9],Non-toxic
same,IC50,[10],> 10 µM
same,Ki,[11],0.53 µM
same,CLint scaled,[12],130 mL/min/kg
same,Activity,[13],Non-toxic
same,IC50,[15],> 10 µM
same,IC50,[16],> 10 µM
same,Ki,[17],> 2.7 µM
O=C(O)c1csc(-n2nc(-c3ccc(O)cc3)cc2C(F)(F)F)n1,IC50,[8],0.32 µM
COc1ccc(-c2cc(C(F)(F)F)n(-c3nc(C(=O)O)cs3)n2)cc1,IC50,[8],0.43 µM
CC(C)(C)c1cc(-c2ccccc2)nn1-c1nc(C(=O)O)cs1,inhibition,[24],1%
